# Source: PubChem BioAssay (NCI)
#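 Growth conditions: 96-well plates. Treatment: test compound, 48 hours, 5 concentrations. Analysis: linear interpolation between bracketing concentrations; unreached endpoints set to highest concentration. GI50 = concentration required for 50% inhibition of growth. TGI denotes the concentration required for complete inhibition of growth.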
# Tests used:
# Test in all cases: growth of human tumour cells (NCI), 48 h
# RXF 393 renal = test system: RXF 393 renal
# KM12 colon = test system: KM12 colon
# EKVX NSCLC = test system: EKVX NSCLC
# MDA-MB-435 = test system: MDA-MB-435
# ACHN renal = test system: ACHN renal
# OVCAR-8 ovarian = test system: OVCAR-8 ovarian
# SNB-75 CNS = test system: SNB-75 CNS
# HCT-15 colon = test system: HCT-15 colon
# CCRF-CEM leukemia = test system: CCRF-CEM leukemia
# RPMI-8226 leukemia = test system: RPMI-8226 leukemia
# UACC-257 melanoma = test system: UACC-257 melanoma
# HT29 colon = test system: HT29 colon
# NCI-H460 lung = test system: NCI-H460 lung
# TK-10 renal = test system: TK-10 renal
# SR leukemia = test system: SR leukemia
# SK-OV-3 ovarian = test system: SK-OV-3 ovarian
# 786-0 renal = test system: 786-0 renal
# NCI-H23 lung = test system: NCI-H23 lung
# A498 renal = test system: A498 renal
# SF-539 CNS = test system: SF-539 CNS
# A549 NSCLC = test system: A549 NSCLC
# LOX IMVI melanoma = test system: LOX IMVI melanoma
# HCT-116 colon = test system: HCT-116 colon
# HS 578T breast = test system: HS 578T breast
# K-562 leukemia = test system: K-562 leukemia
# SF-295 CNS = test system: SF-295 CNS
# OVCAR-4 ovarian = test system: OVCAR-4 ovarian
# IGROV1 ovarian = test system: IGROV1 ovarian
# NCI/ADR-RES ovarian = test system: NCI/ADR-RES ovarian
# SNB-19 CNS = test system: SNB-19 CNS
# U251 CNS = test system: U251 CNS
# T-47D breast = test system: T-47D breast
# BT-549 breast = test system: BT-549 breast
# HCC-2998 colon = test system: HCC-2998 colon
# SK-MEL-28 melanoma = test system: SK-MEL-28 melanoma
# OVCAR-3 ovarian = test system: OVCAR-3 ovarian
# MALME-3M melanoma = test system: MALME-3M melanoma
# UACC-62 melanoma = test system: UACC-62 melanoma
# HOP-62 NSCLC = test system: HOP-62 NSCLC
# NCI-H226 lung = test system: NCI-H226 lung
# HOP-92 NSCLC = test system: HOP-92 NSCLC
# SK-MEL-2 melanoma = test system: SK-MEL-2 melanoma
# SW-620 colon = test system: SW-620 colon
# CAKI-1 renal = test system: CAKI-1 renal
# NCI-H522 lung = test system: NCI-H522 lung
# MCF7 breast = test system: MCF7 breast
# MDA-MB-231 breast = test system: MDA-MB-231 breast
# SF-268 CNS = test system: SF-268 CNS
# DU-145 prostate = test system: DU-145 prostate
# COLO 205 colon = test system: COLO 205 colon
# OVCAR-5 ovarian = test system: OVCAR-5 ovarian
# M14 melanoma = test system: M14 melanoma
# HL-60(TB) leukemia = test system: HL-60(TB) leukemia
# SK-MEL-5 melanoma = test system: SK-MEL-5 melanoma
# MOLT-4 leukemia = test system: MOLT-4 leukemia
# SN12C renal = test system: SN12C renal
# PC-3 prostate = test system: PC-3 prostate
# UO-31 renal = test system: UO-31 renal
compound,measurement,setting,value
COc1c2ccccc2c(O)c2c(=O)ccn(C)c12,GI50,RXF 393 renal,5.27 µM
same,TGI,RXF 393 renal,20.3 µM
same,GI50,KM12 colon,4.97 µM
same,TGI,KM12 colon,38.3 µM
same,GI50,EKVX NSCLC,17.9 µM
same,TGI,EKVX NSCLC,79.2 µM
same,GI50,MDA-MB-435,2.03 µM
same,TGI,MDA-MB-435,4.32 µM
same,GI50,ACHN renal,6.13 µM
same,TGI,ACHN renal,46.3 µM
same,GI50,OVCAR-8 ovarian,4.42 µM
same,TGI,OVCAR-8 ovarian,38.1 µM
same,GI50,SNB-75 CNS,12.9 µM
same,TGI,SNB-75 CNS,> 53.9 µM
same,GI50,HCT-15 colon,3.72 µM
same,TGI,HCT-15 colon,19.6 µM
same,GI50,CCRF-CEM leukemia,26.8 µM
same,TGI,CCRF-CEM leukemia,> 100 µM
same,GI50,RPMI-8226 leukemia,5.96 µM
same,TGI,RPMI-8226 leukemia,> 100 µM
same,GI50,UACC-257 melanoma,3.45 µM
same,TGI,UACC-257 melanoma,12.6 µM
same,GI50,HT29 colon,16.5 µM
same,TGI,HT29 colon,> 100 µM
same,GI50,NCI-H460 lung,3.51 µM
same,TGI,NCI-H460 lung,17 µM
same,GI50,TK-10 renal,11.3 µM
same,TGI,TK-10 renal,55.8 µM
same,GI50,SR leukemia,8.94 µM
same,TGI,SR leukemia,81.8 µM
same,GI50,SK-OV-3 ovarian,75.1 µM
same,TGI,SK-OV-3 ovarian,> 100 µM
same,GI50,786-0 renal,17.2 µM
same,TGI,786-0 renal,66.4 µM
same,GI50,NCI-H23 lung,1.73 µM
same,TGI,NCI-H23 lung,4.08 µM
same,GI50,A498 renal,10.7 µM
same,TGI,A498 renal,41.6 µM
same,GI50,SF-539 CNS,11.5 µM
same,TGI,SF-539 CNS,89.6 µM
same,GI50,A549 NSCLC,9.14 µM
same,TGI,A549 NSCLC,> 67.3 µM
same,GI50,LOX IMVI melanoma,2.02 µM
same,TGI,LOX IMVI melanoma,11.3 µM
same,GI50,HCT-116 colon,3.13 µM
same,TGI,HCT-116 colon,13.1 µM
same,GI50,HS 578T breast,12.2 µM
same,TGI,HS 578T breast,61.5 µM
same,GI50,K-562 leukemia,7.5 µM
same,TGI,K-562 leukemia,> 100 µM
same,GI50,SF-295 CNS,3.69 µM
same,TGI,SF-295 CNS,27.8 µM
same,GI50,OVCAR-4 ovarian,30.3 µM
same,TGI,OVCAR-4 ovarian,> 92 µM
same,GI50,IGROV1 ovarian,30.9 µM
same,TGI,IGROV1 ovarian,> 100 µM
same,GI50,NCI/ADR-RES ovarian,4.62 µM
same,TGI,NCI/ADR-RES ovarian,30 µM
same,GI50,SNB-19 CNS,7.77 µM
same,TGI,SNB-19 CNS,> 100 µM
same,GI50,U251 CNS,2.67 µM
same,TGI,U251 CNS,13.4 µM
same,GI50,T-47D breast,31.7 µM
same,TGI,T-47D breast,> 100 µM
same,GI50,BT-549 breast,14.7 µM
same,TGI,BT-549 breast,84.2 µM
same,GI50,HCC-2998 colon,3.68 µM
same,TGI,HCC-2998 colon,20 µM
same,GI50,SK-MEL-28 melanoma,21.2 µM
same,TGI,SK-MEL-28 melanoma,> 80.1 µM
same,GI50,OVCAR-3 ovarian,1.86 µM
same,TGI,OVCAR-3 ovarian,11 µM
same,GI50,MALME-3M melanoma,2.37 µM
same,TGI,MALME-3M melanoma,5.46 µM
same,GI50,UACC-62 melanoma,2.75 µM
same,TGI,UACC-62 melanoma,7.5 µM
same,GI50,HOP-62 NSCLC,5.48 µM
same,TGI,HOP-62 NSCLC,33 µM
same,GI50,NCI-H226 lung,7.49 µM
same,TGI,NCI-H226 lung,> 49.9 µM
same,GI50,HOP-92 NSCLC,25.6 µM
same,TGI,HOP-92 NSCLC,91.1 µM
same,GI50,SK-MEL-2 melanoma,22.6 µM
same,TGI,SK-MEL-2 melanoma,> 100 µM
same,GI50,SW-620 colon,16.5 µM
same,TGI,SW-620 colon,> 100 µM
same,GI50,CAKI-1 renal,8.59 µM
same,TGI,CAKI-1 renal,52.9 µM
same,GI50,NCI-H522 lung,23.9 µM
same,TGI,NCI-H522 lung,> 100 µM
same,GI50,MCF7 breast,3.31 µM
same,TGI,MCF7 breast,11.3 µM
same,GI50,MDA-MB-231 breast,8.66 µM
same,TGI,MDA-MB-231 breast,> 61.4 µM
same,GI50,SF-268 CNS,16.5 µM
same,TGI,SF-268 CNS,> 68.9 µM
same,GI50,DU-145 prostate,7.67 µM
same,TGI,DU-145 prostate,> 100 µM
same,GI50,COLO 205 colon,7.7 µM
same,TGI,COLO 205 colon,> 100 µM
same,GI50,OVCAR-5 ovarian,11.7 µM
same,TGI,OVCAR-5 ovarian,45 µM
same,GI50,M14 melanoma,2.3 µM
same,TGI,M14 melanoma,5.81 µM
same,GI50,HL-60(TB) leukemia,3.25 µM
same,TGI,HL-60(TB) leukemia,18.7 µM
same,GI50,SK-MEL-5 melanoma,3.77 µM
same,TGI,SK-MEL-5 melanoma,14.4 µM
same,GI50,MOLT-4 leukemia,17.9 µM
same,TGI,MOLT-4 leukemia,> 83.8 µM
same,GI50,SN12C renal,6.79 µM
same,TGI,SN12C renal,22.1 µM
same,GI50,PC-3 prostate,15 µM
same,TGI,PC-3 prostate,57.6 µM
same,GI50,UO-31 renal,> 57.5 µM
same,TGI,UO-31 renal,> 100 µM
